pIC50: −log10 of the molar value.
Columns and labels:
[1] = molecular target: T1, His tagged full-length PTP1B protein (Homo sapiens, UniProt P18031); test: Mobility Shift Assay (MSA) used to determine potency of PTP1B inhibitors; type: biochemical; conditions: Table 2
T1 construct: made in house
T1 sequence (P18031 with tags, fused parts or gaps): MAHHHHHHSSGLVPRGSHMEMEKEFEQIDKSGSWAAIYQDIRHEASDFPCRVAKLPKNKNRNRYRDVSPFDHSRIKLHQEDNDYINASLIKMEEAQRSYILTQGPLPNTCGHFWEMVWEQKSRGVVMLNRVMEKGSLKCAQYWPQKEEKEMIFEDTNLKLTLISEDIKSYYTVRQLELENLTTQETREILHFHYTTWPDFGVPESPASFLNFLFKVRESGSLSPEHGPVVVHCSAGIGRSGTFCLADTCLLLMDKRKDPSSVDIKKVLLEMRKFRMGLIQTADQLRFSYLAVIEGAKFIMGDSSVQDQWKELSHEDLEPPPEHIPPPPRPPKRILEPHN
Procedure: The enzymatic assay used to determine activity is a mobility shift assay using a LabChip EZ Reader by Caliper Life Sciences. The enzymatic reaction was carried out in assay buffer (50 mM HEPES pH 7.5, 1 mM EGTA, 10 mM EDTA, 0.01% Tween® 20, and 2 mM DTT). […] The enzyme (at 0.5 nM) was incubated with compound for 10 minutes at room temperature. […] The % inhibition was then used to calculate the IC50 values.

[2] = molecular target: T2, His tagged PTPN2 (TC45) protein (Homo sapiens, UniProt P17706); test: Mobility Shift Assay used to determine potency of PTPN2 inhibitors; type: biochemical; conditions: Table 2; read-out: PTPN2 MSA IC50
T2 construct: made in house
T2 sequence (P17706 with tags, fused parts or gaps isoform P17706-2): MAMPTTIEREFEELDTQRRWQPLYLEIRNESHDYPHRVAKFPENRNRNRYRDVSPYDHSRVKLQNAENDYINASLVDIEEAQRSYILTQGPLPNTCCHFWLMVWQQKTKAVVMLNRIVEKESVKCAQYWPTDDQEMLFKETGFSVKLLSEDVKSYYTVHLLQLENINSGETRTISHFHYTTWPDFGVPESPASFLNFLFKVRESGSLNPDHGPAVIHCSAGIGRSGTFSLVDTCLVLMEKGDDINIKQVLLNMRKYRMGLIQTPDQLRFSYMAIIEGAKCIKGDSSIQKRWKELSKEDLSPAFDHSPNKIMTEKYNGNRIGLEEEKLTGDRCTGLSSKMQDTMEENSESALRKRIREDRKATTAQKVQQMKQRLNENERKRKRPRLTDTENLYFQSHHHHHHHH
Procedure: Example 292: Mobility Shift Assay used to determine potency of PTPN2 inhibitors
Compound activity was determined using in house His tagged PTPN2 (TC45) protein (SEQ ID NO: 1) in an in vitro enzymatic reaction. The enzymatic assay used to determine activity was a mobility shift assay using a LabChip EZ Reader by Caliper Life Sciences. The enzymatic reaction was carried out in assay buffer (50 mM HEPES pH 7.5, 1 mM EGTA, 10 mM EDTA, 0.01% Tween® 20, and 2 mM DTT). The compounds were dispensed on a white 384 well ProxiPlate™ (PerkinElmer Catalog#6008289) plate using the Labcyte Echo at varying concentrations (12 point, 1:3 dilution). The enzyme (at 0.5 nM) was incubated with compound for 10 minutes at room temperature. Then the substrate (phosphorylated insulin receptor probe sequence: ((OG488)—{NH—CH2—CH2—O—CH2—CH2—O—CH2—CO)—T—R—D—I—(PY)—E—T—D—Y—Y—R—K—K—NH2) (SEQ ID NO: 2) was added at 2 μM to the plates and incubated for another 10 minutes at room temperature. Finally, a quench solution (water and 4-bromo-3-(2-oxo-2-propoxyethoxy)-5-(3-{[1-(phenylmethanesulfonyl)piperidin-4-yl]amino}phenyl)thiophene-2-carboxylic acid) was added to the plates, which were then run on the EZ Reader (excitation 488 nm, emission 530 nm) to measure % conversion (the amount of phosphorylated substrate which was de-phosphorylated by PTPN2). […] The % inhibition was then used to calculate the IC50 values.

Structure (SMILES)	pIC50 [1]	pIC50 [2]
O=C1CN(c2c(O)cc3ccc(NCCCC(F)F)cc3c2F)S(=O)(=O)N1 [Compound 324, 5-{7-[(4,4-difluorobutyl)amino]-1-fluoro-3-hydroxynaphthalen-2-y}-1λ^6,2,5-thiadiazolidine-1,1,3-trione]	> 9.00	> 9.00
O=C1CN(c2c(O)cc3cc(NCCCC(F)F)ccc3c2F)S(=O)(=O)N1 [Compound 330, 5-{6-[(4,4-difluorobutyl)amino]-1-fluoro-3-hydroxynaphthalen-2-y}-1λ^6,2,5-thiadiazolidine-1,1,3-trione]	7.00 to 8.00	7.00 to 8.00
CC(C)(C)CCOc1cc2c(F)c(N3CC(=O)NS3(=O)=O)c(O)cc2cc1O [Compound 359, 5-[7-(3,3-dimethylbutoxy)-1-fluoro-3,6-dihydroxynaphthalen-2-yl]-1λ^6,2,5-thiadiazolidine-1,1,3-trione]	> 9.00	> 9.00
O=C1CN(c2c(O)cc3ccc(OCCNS(=O)(=O)C4CC4)cc3c2F)S(=O)(=O)N1 [Compound 127, N-(2-{[8-fluoro-6-hydroxy-7-(1,1,4-trioxo-1λ^6,2,5-thiadiazolidin-2-yl)naphthalen-2-yl]oxy}ethyl)cyclopropanesulfonamide]	8.00 to 9.00	8.00 to 9.00
CC(C)(O)CCOc1cc2c(F)c(N3CC(=O)NS3(=O)=O)c(O)cc2cc1O [Compound 355, 5-[1-fluoro-3,6-dihydroxy-7-(3-hydroxy-3-methylbutoxy)naphthalen-2-yl]-1λ^6,2,5-thiadiazolidine-1,1,3-trione]	> 9.00	> 9.00
CCc1cc2c(F)c(N3CC(=O)NS3(=O)=O)c(O)cc2cc1O [Compound 358, 5-(7-ethyl-1-fluoro-3,6-dihydroxynaphthalen-2-yl)-1λ^6,2,5-thiadiazolidine-1,1,3-trione]	8.00 to 9.00	8.00 to 9.00
O=C1CN(c2c(O)cc3cc(O)c(OCCC4CCC4)cc3c2F)S(=O)(=O)N1 [Compound 362, 5-[7-(2-cyclobutylethoxy)-1-fluoro-3,6-dihydroxynaphthalen-2-yl]-1λ^6,2,5-thiadiazolidine-1,1,3-trione]	> 9.00	> 9.00
COc1ccc2c(F)c(N3CC(=O)NS3(=O)=O)c(O)cc2c1 [Compound 335, 5-(1-fluoro-3-hydroxy-6-methoxynaphthalen-2-yl)-11λ^6,2,5-thiadiazolidine-1,1,3-trione]	7.00 to 8.00	7.00 to 8.00
C[C@](O)(CO)CCOc1ccc2cc(O)c(N3CC(=O)NS3(=O)=O)c(F)c2c1 [Compound 343, 5-{7-[(3R)-3,4-dihydroxy-3-methylbutoxy]-1-fluoro-3-hydroxynaphthalen-2-yl}-1λ^6,2,5-thiadiazolidine-1,1,3-trione]	8.00 to 9.00	> 9.00
CCCCOc1cc2c(F)c(N3CC(=O)NS3(=O)=O)c(O)cc2cc1O [Compound 363, 5-(7-butoxy-1-fluoro-3,6-dihydroxynaphthalen-2-yl)-1λ^6,2,5-thiadiazolidine-1,1,3-trione]	> 9.00	> 9.00
NCCOc1ccc2c(F)c(N3CC(=O)NS3(=O)=O)c(O)cc2c1 [Compound 337, 5-[6-(2-aminoethoxy)-1-fluoro-3-hydroxynaphthalen-2-yl]-1λ^6,2,5-thiadiazolidine-1,1,3-trione]	7.00 to 8.00	7.00 to 8.00
C[C@@](O)(CC#N)CCOc1ccc2cc(O)c(N3CC(=O)NS3(=O)=O)c(F)c2c1 [Compound 346, (3R)-5-{[8-fluoro-6-hydroxy-7-(1,1,4-trioxo-1λ^6,2,5-thiadiazolidin-2-yl)naphthalen-2-yl]oxy}-3-hydroxy-3-methylpentanenitrile]	> 9.00	> 9.00
O=C1CN(c2c(O)cc3cc(O)c(Br)cc3c2F)S(=O)(=O)N1 [Compound 370, 5-(7-bromo-1-fluoro-3,6-dihydroxynaphthalen-2-yl)-1λ^6,2,5-thiadiazolidine-1,1,3-trione]	8.00 to 9.00	8.00 to 9.00
NCCCS(=O)(=O)N1CC=C(c2ccc3cc(O)c(N4CC(=O)NS4(=O)=O)c(F)c3c2)C1 [Compound 345, 5-{7-[1-(3-aminopropane-1-sulfonyl)-2,5-dihydro-1H-pyrrol-3-yl]-1-fluoro-3-hydroxynaphthalen-2-yl}-1λ^6,2,5-thiadiazolidine-1,1,3-trione]	8.00 to 9.00	> 9.00
CC(C)CCNc1ccc2c(F)c(N3CC(=O)NS3(=O)=O)c(O)cc2c1 [Compound 332, 5-{1-fluoro-3-hydroxy-6-[(3-methylbutyl)amino]naphthalen-2-yl}-1λ^6,2,5-thiadiazolidine-1,1,3-trione]	7.00 to 8.00	7.00 to 8.00
CC(O)(CO)CCOc1ccc2cc(O)c(N3CC(=O)NS3(=O)=O)c(F)c2c1 (stereo not drawn) [Compound 323, 5-[7-(3,4-dihydroxy-3-methylbutoxy)-1-fluoro-3-hydroxynaphthalen-2-yl]-1λ^6,2,5-thiadiazolidine-1,1,3-trione]	> 9.00	> 9.00
O=C1CN(c2c(O)cc3cc(OCC4CC4)ccc3c2F)S(=O)(=O)N1 [Compound 338, 5-[6-(cyclopropylmethoxy)-1-fluoro-3-hydroxynaphthalen-2-yl]-1λ^6,2,5-thiadiazolidine-1,1,3-trione]	7.00 to 8.00	7.00 to 8.00
CC(C)(CO)CCOc1ccc2cc(O)c(N3CC(=O)NS3(=O)=O)c(F)c2c1 [Compound 342, 5-[1-fluoro-3-hydroxy-7-(4-hydroxy-3,3-dimethylbutoxy)naphthalen-2-yl]-1λ^6,2,5-thiadiazolidine-1,1,3-trione]	> 9.00	> 9.00
O=C1CN(c2c(O)cc3cc(O)c(OCCC4CCCO4)cc3c2F)S(=O)(=O)N1 (stereo not drawn) [Compound 360, 5-{1-fluoro-3,6-dihydroxy-7-[2-(oxolan-2-yl)ethoxy]naphthalen-2-yl}-1λ^6,2,5-thiadiazolidine-1,1,3-trione]	> 9.00	> 9.00
O=C1CN(c2c(O)cc3ccc(OCCC4CCC4)cc3c2F)S(=O)(=O)N1 [Compound 353, 5-[7-(2-cyclobutylethoxy)-1-fluoro-3-hydroxynaphthalen-2-yl]-1λ^6,2,5-thiadiazolidine-1,1,3-trione]	> 9.00	> 9.00
C[C@](O)(CC#N)CCOc1ccc2cc(O)c(N3CC(=O)NS3(=O)=O)c(F)c2c1 [Compound 347, (3S)-5-{[8-fluoro-6-hydroxy-7-(1,1,4-trioxo-1λ^6,2,5-thiadiazolidin-2-yl)naphthalen-2-yl]oxy}-3-hydroxy-3-methylpentanenitrile]	8.00 to 9.00	> 9.00
CC(C)(C)CCOc1ccc2cc(O)c(N3CC(=O)NS3(=O)=O)c(F)c2c1 [Compound 352, 5-[7-(3,3-dimethylbutoxy)-1-fluoro-3-hydroxynaphthalen-2-yl]-1λ^6,2,5-thiadiazolidine-1,1,3-trione]	> 9.00	> 9.00
CC(C)NCCCc1ccc2cc(O)c(N3CC(=O)NS3(=O)=O)c(F)c2c1 [Compound 349, 5-(1-fluoro-3-hydroxy-7-{3-[(propan-2-yl)amino]propyl}naphthalen-2-yl)-1λ^6,2,5-thiadiazolidine-1,1,3-trione]	8.00 to 9.00	8.00 to 9.00
N#CCC1(COc2ccc3cc(O)c(N4CC(=O)NS4(=O)=O)c(F)c3c2)CC1 [Compound 130, [1-({[8-fluoro-6-hydroxy-7-(1,1,4-trioxo-1λ^6,2,5-thiadiazolidin-2-yl)naphthalen-2-yl]oxy}methyl)cyclopropyl]acetonitrile]	8.00 to 9.00	8.00 to 9.00

From patent publication US20230019236A1, “PROTEIN TYROSINE PHOSPHATASE INHIBITORS AND METHODS OF USE THEREOF” (Calico Life Sciences LLC, priority 2019, published 2023)
